Results as given in patent publication US12157730B2, “Heteroaryl derivative, method for producing same, and pharmaceutical composition comprising same as effective component” (VORONOI INC., priority 2019, dated 2024).

target: T1, Ba/F3 cell EGFR Exon20 ins NPH (Homo sapiens, UniProt P00533, INS773NPH); experiment: Ba/F3 cell proliferation suppression, EGFR Exon20 ins NPH; format: cell-based; details: GI50 class; Ba/F3 cell line with NPH inserted at Exon20 of EGFR; 72 hours
T1 construct: expressed in transfected cells; host or cells: Ba/F3
Summary of the method: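 Growth suppression determined as GI50 following 72 h exposure across 12 concentrations up to 50 um, with viability by luminescent ATP assay (CellTiter-Glo).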

**Q.** For `C=CC(=O)Nc1cc(Nc2cc(N3OCC[C@@H]3c3cc(F)ccc3F)ncn2)c(OC)cc1N1C[C@H]2CCN(C)[C@H]2C1` [compound 892, N-(5-((6-((R)-3-(2,5-difluorophenyl)isoxazolidine-2-yl)pyrimidine-4-yl)amino)-4-methoxy-2-((3aR,6aR)-1-methylhexahydropyrrolo [3,4-b]pyrrole-5(1H)-yl)phenyl) acrylamide], which “Ba/F3 (NPH) Activity” value is on record?
**A.** A (GI50 < 50 nM)

**Q.** With `C=CC(=O)Nc1cc(Nc2cc(N3OCC[C@@H]3c3cccc(F)c3)ncn2)c(OC)cc1N1CC[C@H](N(C)C)C1` [compound 839, N-(2-((S)-3-(dimethylamino)pyrolidine-1-yl)-5-((6-((R)-3-(3-fluorophenyl)isoxazolidine-2-yl)pyrimidine-4-yl)amino)-4-methoxyphenyl) acrylamide] as the molecule, how does the “Ba/F3 (NPH) Activity” value read?
**A.** A (GI50 < 50 nM)

**Q.** For `C=CC(=O)Nc1cc(Nc2cc(N3OCC[C@@H]3c3ccc(C)nc3)ncn2)c(OC)cc1N1CCC(N2CCOCC2)CC1` [Example 45, N-(4-methoxy-5-((6-((R)-3-(6-methylpyridine-3-yl)isoxazolidine-2-yl)pyrimidine-4-yl)amino)-2-(4-morpholinopiperidine-1-yl)phenyl) acrylamide], which “Ba/F3 (NPH) Activity” value is on record?
**A.** B (50 nM ≤ GI50 < 500 nM)

**Q.** `C=CC(=O)Nc1cc(Nc2cc(N3OCC[C@H]3c3c(F)cccc3F)ncn2)c(OC)cc1N1CCN(C)CC1` [compound 307, N-(5-((6-((S)-3-(2,6-difluorophenyl)isoxazolidine-2-yl)pyrimidine-4-yl)amino)-4-methoxy-2-(4-methylpiperazine-1-yl)phenyl)acrylamide] was tested. Which “Ba/F3 (NPH) Activity” value did it give?
**A.** C (500 nM ≤ GI50 < 5000 nM)

**Q.** Which “Ba/F3 (NPH) Activity” value does the source give for `C=CC(=O)Nc1cc(Nc2cc(N3OCC[C@@H]3c3ccc4ccccc4c3)ncn2)c(OC)cc1N1CCC(N2C[C@@H]3C[C@H]2CO3)CC1` [compound 512, N-(2-(4-((1S,4S)-2-oxa-5-azabicyclo[2.2.1]heptane-5-yl)piperidine-1-yl)-4-methoxy-5-((6-((R)-3-(naphthalene-2-yl)isoxazolidine-2-yl)pyrimidine-4-yl)amino)phenyl)acrylamide] here?
**A.** A (GI50 < 50 nM)

**Q.** For `C=CC(=O)Nc1cc(Nc2cc(N3OCC[C@@H]3c3c(F)ccc(F)c3F)ncn2)c(OC)cc1N1CCC(N2C[C@@H](C)O[C@@H](C)C2)CC1` [compound 644, N-(2-(4-((2S,6R)-2,6-dimethylmorpholino)piperidine-1-yl)-4-methoxy-5-((6-((R)-3-(2,3,6-trifluorophenyl)isoxazolidine-2-yl)pyrimidine-4-yl)amino)phenyl)acrylamide], which “Ba/F3 (NPH) Activity” value is on record?
**A.** A (GI50 < 50 nM)

**Q.** `C=CC(=O)Nc1cc(Nc2cc(N3OCC[C@@H]3c3ccccc3)ncn2)c(OC)cc1N1CCN(CCN(C)C)CC1` [Example 278, N-(2-(4-(2-(dimethylamino)ethyl)piperazine-1-yl)-4-methoxy-5-((6-((R)-3-phenylisoxazolidine-2-yl)pyrimidine-4-yl)amino)phenyl) acrylamide] was tested. Which “Ba/F3 (NPH) Activity” value did it give?
**A.** A (GI50 < 50 nM)

**Q.** Which “Ba/F3 (NPH) Activity” value does the source give for `C=CC(=O)Nc1cc(Nc2cc(N3OCC[C@@H]3c3ccc(F)c(Cl)c3)ncn2)c(OC)cc1N1CCC(N2C[C@@H](C)N(C3CC3)C[C@H]2C)CC1` [Example 178, N-(5-((6-((R)-3-(3-chloro-4-fluorophenyl)isoxazolidine-2-yl)pyrimidine-4-yl)amino)-2-(4-((2R,5R)-4-cyclopropyl-2,5-dimethylpiperazine-1-yl)piperidine-1-yl)-4-methoxyphenyl) acrylamide] here?
**A.** A (GI50 < 50 nM)

**Q.** With `C=CC(=O)Nc1cc(Nc2cc(N3OCC[C@@H]3c3ccc(Cl)c(F)c3)ncn2)c(OC)cc1N1CCC(N2C[C@@H](C)O[C@@H](C)C2)CC1` [compound 709, N-(5-((6-((R)-3-(4-chloro-3-fluorophenyl)isoxazolidine-2-yl)pyrimidine-4-yl)amino)-2-(4-((2S,6R)-2,6-dimethylmorpholino)piperidine-1-yl)-4-methoxyphenyl) acrylamide] as the molecule, how does the “Ba/F3 (NPH) Activity” value read?
**A.** A (GI50 < 50 nM)

**Q.** How did the “Ba/F3 (NPH) Activity” value turn out when `C=CC(=O)Nc1cc(Nc2cc(N3OCC[C@@H]3c3ccc(F)cc3F)ncn2)c(OC)cc1N1CCC(N2CCN(C3CCOCC3)CC2)CC1` [Example 207, N-(5-((6-((R)-3-(2,4-difluorophenyl)isoxazolidine-2-yl)pyrimidine-4-yl)amino)-4-methoxy-2-(4-(4-(tetrahydro-2H-pyran-4-yl)piperazine-1-yl)piperidine-1-yl)phenyl)acrylamide] was run?
**A.** A (GI50 < 50 nM)

**Q.** With `C=CC(=O)Nc1cc(Nc2cc(N3OCC[C@@H]3c3cccc(Cl)c3F)ncn2)c(OC)cc1N1CCC(N2CCN(C(C)C)CC2)CC1` [compound 707, N-(5-((6-((R)-3-(3-chloro-2-fluorophenyl)isoxazolidine-2-yl)pyrimidine-4-yl)amino)-2-(4-(4-isopropylpiperazine-1-yl)piperidine-1-yl)-4-methoxyphenyl) acrylamide] as the molecule, how does the “Ba/F3 (NPH) Activity” value read?
**A.** A (GI50 < 50 nM)

**Q.** For `C=CC(=O)Nc1cc(Nc2cc(N3OCC[C@@H]3c3cc(F)cc(F)c3)ncn2)c(OC)cc1N1CCC(N2CCC(F)(F)CC2)CC1` [compound 718, N-(2-(4,4-difluoro-[1,4'-bipiperidine]-1'-yl)-5-((6-((R)-3-(3,5-difluorophenyl)isoxazolidine-2-yl)pyrimidine-4-yl)amino)-4-methoxyphenyl) acrylamide], which “Ba/F3 (NPH) Activity” value is on record?
**A.** A (GI50 < 50 nM)

**Q.** How did the “Ba/F3 (NPH) Activity” value turn out when `C#Cc1cccc([C@H]2CCON2c2cc(Nc3cc(NC(=O)C=C)c(N4CCC(N5CCOCC5)CC4)cc3OC)ncn2)c1` [compound 650, N-(5-((6-((R)-3-(3-ethynylphenyl)isoxazolidine-2-yl)pyrimidine-4-yl)amino)-4-methoxy-2-(4-morpholinopiperidine-1-yl)phenyl)acrylamide] was run?
**A.** A (GI50 < 50 nM)

**Q.** `C=CC(=O)Nc1cc(Nc2cc(N3OCC[C@@H]3c3cc(F)ccc3F)ncn2)c(OC)cc1N1CCOCC1` [compound 825, N-(5-((6-((R)-3-(2,5-difluorophenyl)isoxazolidine-2-yl)pyrimidine-4-yl)amino)-4-methoxy-2-morpholinophenyl) acrylamide] was tested. Which “Ba/F3 (NPH) Activity” value did it give?
**A.** A (GI50 < 50 nM)

**Q.** Which “Ba/F3 (NPH) Activity” value does the source give for `C=CC(=O)Nc1cc(Nc2cc(N3OCC[C@@H]3c3ccc(F)c(F)c3)ncn2)c(OC)cc1N1CCN(CC)CC1` [compound 460, N-(5-((6-((R)-3-(3,4-difluorophenyl)isoxazolidine-2-yl)pyrimidine-4-yl)amino)-2-(4-ethylpiperazine-1-yl)-4-methoxyphenyl) acrylamide] here?
**A.** A (GI50 < 50 nM)

**Q.** For `C=CC(=O)Nc1cc(Nc2cc(N3OCC[C@@H]3c3cccc(Cl)c3Cl)ncn2)c(OC)cc1N1CCN(C2CC2)[C@@H](C)C1` [compound 568, N-(2-((S)-4-cyclopropyl-3-methylpiperazine-1-yl)-5-((6-((R)-3-(2,3-dichlorophenyl)isoxazolidine-2-yl)pyrimidine-4-yl)amino)-4-methoxyphenyl) acrylamide], which “Ba/F3 (NPH) Activity” value is on record?
**A.** A (GI50 < 50 nM)

**Q.** How did the “Ba/F3 (NPH) Activity” value turn out when `C=CC(=O)Nc1cc(Nc2cc(N3OCC[C@@H]3c3cccc(C(F)(F)F)c3)ncn2)c(OC)cc1N1CCN(CC)CC1` [compound 452, N-(2-(4-ethylpiperazine-1-yl)-4-methoxy-5-((6-((R)-3-(3-(trifluoromethyl)phenyl)isoxazolidine-2-yl)pyrimidine-4-yl)amino)phenyl) acrylamide] was run?
**A.** A (GI50 < 50 nM)

**Q.** How did the “Ba/F3 (NPH) Activity” value turn out when “N-(5-((6-((R)-3-(4- chloro-3-fluorophenyl) isoxazolidine-2-yl) pyrimidine-4-yl)amino)- 4-methoxy-2-((R)-3- morpholinopyrolidine- 1-yl)phenyl)acrylamide [compound 419]” was run?
**A.** A (GI50 < 50 nM)
